Reference: paper PMC5428509, “Irreversible inhibition of BTK kinase by a novel highly selective inhibitor CHMFL-BTK-11 suppresses inflammatory response in rheumatoid arthritis model” (Scientific Reports, 2017)

Experiments:
Assay in all cases: biochemical
Design in all cases: KinomeScan competition binding panel (DiscoveRx), percent of control at 1 uM
Details in all cases: read-out: Percent Control
PDGFRA = PDGFRA (Homo sapiens, UniProt P16234)
How it was run: (§1)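 Selectivity profiled across 456 kinases/mutants by KinomeScan binding technology.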

PCTK1 = molecular target: T1, PCTK1 (Homo sapiens, UniProt Q00536)
T1 construct: gene CDK16
How it was run: as §1

DAPK2 = DAPK2 (Homo sapiens, UniProt Q9UIK4)
How it was run: as §1

DCAMKL3 = molecular target: T2, DCAMKL3 (Homo sapiens, UniProt Q9C098)
T2 construct: gene DCLK3
How it was run: as §1

MLK3 = molecular target: T3, MLK3 (Homo sapiens, UniProt Q16584)
T3 construct: gene MAP3K11
How it was run: as §1

KIT(V559D,V654A) = KIT(V559D,V654A) (Homo sapiens, UniProt P10721, V559D/V654A)
How it was run: as §1

PIP5K1C = PIP5K1C (Homo sapiens, UniProt O60331)
How it was run: as §1

PIK3CA(E545A) = PIK3CA(E545A) (Homo sapiens, UniProt P42336, E545A)
How it was run: as §1

PKAC-alpha = molecular target: T4, PKAC-alpha (Homo sapiens, UniProt P17612)
T4 construct: gene PRKACA
How it was run: as §1

[1] = molecular target: T5, ABL1(F317L)-nonphosphorylated (Homo sapiens, UniProt P00519, F317L)
T5 construct: nonphosphorylated
How it was run: as §1

DCAMKL2 = molecular target: T6, DCAMKL2 (Homo sapiens, UniProt Q8N568)
T6 construct: gene DCLK2
How it was run: as §1

EGFR = EGFR (Homo sapiens, UniProt P00533)
How it was run: as §1

[2] = molecular target: T7, ABL1(F317I)-nonphosphorylated (Homo sapiens, UniProt P00519, F317I)
T7 construct: nonphosphorylated
How it was run: as §1

NEK2 = NEK2 (Homo sapiens, UniProt P51955)
How it was run: as §1

STK35 = STK35 (Homo sapiens, UniProt Q8TDR2)
How it was run: as §1

ADCK4 = molecular target: T8, ADCK4 (Homo sapiens, UniProt Q96D53)
T8 construct: gene COQ8B
How it was run: as §1

[3] = molecular target: T9, RSK3(Kin.Dom.2-C-terminal) (Homo sapiens, UniProt Q15349)
T9 construct: gene RPS6KA2; Kin.Dom.2-C-terminal
How it was run: as §1

SRPK2 = SRPK2 (Homo sapiens, UniProt P78362)
How it was run: as §1

HASPIN = HASPIN (Homo sapiens, UniProt Q8TF76)
How it was run: as §1

FER = FER (Homo sapiens, UniProt P16591)
How it was run: as §1

NEK9 = NEK9 (Homo sapiens, UniProt Q8TD19)
How it was run: as §1

CLK2 = CLK2 (Homo sapiens, UniProt P49760)
How it was run: as §1

PIM2 = PIM2 (Homo sapiens, UniProt Q9P1W9)
How it was run: as §1

p38-alpha = molecular target: T10, p38-alpha (Homo sapiens, UniProt Q16539)
T10 construct: gene MAPK14
How it was run: as §1

HASPIN, sequence (Q8TF76 whole entry): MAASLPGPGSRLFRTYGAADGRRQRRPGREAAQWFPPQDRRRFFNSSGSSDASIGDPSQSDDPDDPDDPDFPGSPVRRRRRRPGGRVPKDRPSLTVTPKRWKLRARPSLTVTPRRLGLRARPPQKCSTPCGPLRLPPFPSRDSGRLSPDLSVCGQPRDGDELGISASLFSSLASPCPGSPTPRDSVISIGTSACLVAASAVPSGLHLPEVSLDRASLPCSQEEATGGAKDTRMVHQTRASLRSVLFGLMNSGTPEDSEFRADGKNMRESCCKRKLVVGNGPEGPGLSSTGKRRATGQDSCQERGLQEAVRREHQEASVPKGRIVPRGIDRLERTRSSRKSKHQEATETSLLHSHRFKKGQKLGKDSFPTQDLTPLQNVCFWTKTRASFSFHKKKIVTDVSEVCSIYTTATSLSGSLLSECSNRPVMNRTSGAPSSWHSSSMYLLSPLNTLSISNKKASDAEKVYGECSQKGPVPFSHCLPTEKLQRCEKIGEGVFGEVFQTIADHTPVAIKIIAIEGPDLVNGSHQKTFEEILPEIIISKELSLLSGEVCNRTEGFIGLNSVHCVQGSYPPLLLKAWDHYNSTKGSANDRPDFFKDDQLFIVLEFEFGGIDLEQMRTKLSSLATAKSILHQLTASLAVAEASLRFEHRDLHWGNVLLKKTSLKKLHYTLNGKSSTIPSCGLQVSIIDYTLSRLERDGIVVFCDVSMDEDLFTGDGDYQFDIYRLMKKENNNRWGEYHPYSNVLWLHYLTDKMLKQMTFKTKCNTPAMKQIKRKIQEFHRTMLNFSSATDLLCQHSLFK
STK35, sequence (Q8TDR2 whole entry): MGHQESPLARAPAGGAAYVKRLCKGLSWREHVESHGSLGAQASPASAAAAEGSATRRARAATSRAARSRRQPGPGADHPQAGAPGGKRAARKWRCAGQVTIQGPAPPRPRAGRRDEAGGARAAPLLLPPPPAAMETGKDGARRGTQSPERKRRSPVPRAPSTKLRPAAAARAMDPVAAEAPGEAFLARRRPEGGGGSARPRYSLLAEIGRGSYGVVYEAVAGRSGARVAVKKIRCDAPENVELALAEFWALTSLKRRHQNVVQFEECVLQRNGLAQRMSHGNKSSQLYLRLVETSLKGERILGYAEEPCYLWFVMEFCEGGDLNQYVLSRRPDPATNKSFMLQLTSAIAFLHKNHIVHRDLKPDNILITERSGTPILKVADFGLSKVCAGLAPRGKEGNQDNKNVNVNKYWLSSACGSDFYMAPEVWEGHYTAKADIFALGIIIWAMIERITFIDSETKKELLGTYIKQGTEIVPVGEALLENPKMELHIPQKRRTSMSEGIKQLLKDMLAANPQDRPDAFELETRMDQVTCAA
T5 sequence (P00519 whole entry F317L): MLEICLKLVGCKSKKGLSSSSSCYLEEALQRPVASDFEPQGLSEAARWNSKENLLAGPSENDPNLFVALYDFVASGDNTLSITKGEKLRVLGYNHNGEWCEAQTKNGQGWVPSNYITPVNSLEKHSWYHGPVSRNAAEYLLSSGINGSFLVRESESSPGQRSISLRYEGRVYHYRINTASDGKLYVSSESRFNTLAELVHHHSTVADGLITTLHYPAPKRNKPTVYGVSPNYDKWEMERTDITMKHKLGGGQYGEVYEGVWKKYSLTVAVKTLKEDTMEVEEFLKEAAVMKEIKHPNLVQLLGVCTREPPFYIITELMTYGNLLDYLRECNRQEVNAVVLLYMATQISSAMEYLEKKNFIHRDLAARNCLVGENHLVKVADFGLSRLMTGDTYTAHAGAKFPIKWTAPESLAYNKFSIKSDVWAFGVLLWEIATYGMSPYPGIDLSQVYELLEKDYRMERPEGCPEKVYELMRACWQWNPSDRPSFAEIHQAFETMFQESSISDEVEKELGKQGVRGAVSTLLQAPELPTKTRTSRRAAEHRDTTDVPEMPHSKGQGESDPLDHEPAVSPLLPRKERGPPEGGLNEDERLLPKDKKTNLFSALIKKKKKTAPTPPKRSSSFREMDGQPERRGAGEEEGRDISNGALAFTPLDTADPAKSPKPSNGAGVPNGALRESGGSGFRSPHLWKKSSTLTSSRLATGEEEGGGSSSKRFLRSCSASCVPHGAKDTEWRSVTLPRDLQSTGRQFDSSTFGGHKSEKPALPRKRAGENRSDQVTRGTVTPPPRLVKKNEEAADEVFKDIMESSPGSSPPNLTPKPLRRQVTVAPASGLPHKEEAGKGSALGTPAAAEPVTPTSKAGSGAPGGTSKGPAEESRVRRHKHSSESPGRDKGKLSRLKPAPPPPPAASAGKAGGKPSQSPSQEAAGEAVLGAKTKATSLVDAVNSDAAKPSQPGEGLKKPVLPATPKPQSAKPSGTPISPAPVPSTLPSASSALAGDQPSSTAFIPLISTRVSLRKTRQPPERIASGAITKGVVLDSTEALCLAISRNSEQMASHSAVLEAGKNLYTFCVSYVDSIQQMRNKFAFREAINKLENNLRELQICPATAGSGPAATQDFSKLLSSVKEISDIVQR
T6 sequence (Q8N568 whole entry): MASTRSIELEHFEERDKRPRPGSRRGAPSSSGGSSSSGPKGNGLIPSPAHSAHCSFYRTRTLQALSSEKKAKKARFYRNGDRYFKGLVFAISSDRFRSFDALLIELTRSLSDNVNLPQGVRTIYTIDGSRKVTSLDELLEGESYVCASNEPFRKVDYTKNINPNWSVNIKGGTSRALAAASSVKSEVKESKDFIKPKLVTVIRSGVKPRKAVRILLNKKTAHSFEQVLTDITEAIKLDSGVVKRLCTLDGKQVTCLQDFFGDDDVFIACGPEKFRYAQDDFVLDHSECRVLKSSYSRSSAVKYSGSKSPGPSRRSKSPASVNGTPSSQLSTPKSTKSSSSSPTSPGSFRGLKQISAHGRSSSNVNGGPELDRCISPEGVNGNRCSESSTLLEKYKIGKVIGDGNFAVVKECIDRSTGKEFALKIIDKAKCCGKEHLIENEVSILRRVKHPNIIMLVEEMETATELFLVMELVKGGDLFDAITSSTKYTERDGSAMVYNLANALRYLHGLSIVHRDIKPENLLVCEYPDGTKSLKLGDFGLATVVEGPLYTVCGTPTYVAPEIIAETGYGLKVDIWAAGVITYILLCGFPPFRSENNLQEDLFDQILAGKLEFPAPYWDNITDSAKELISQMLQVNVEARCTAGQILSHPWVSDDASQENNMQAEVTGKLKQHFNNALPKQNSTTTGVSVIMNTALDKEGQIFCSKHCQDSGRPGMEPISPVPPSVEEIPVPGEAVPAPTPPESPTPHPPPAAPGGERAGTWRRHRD
PIP5K1C, sequence (O60331 whole entry): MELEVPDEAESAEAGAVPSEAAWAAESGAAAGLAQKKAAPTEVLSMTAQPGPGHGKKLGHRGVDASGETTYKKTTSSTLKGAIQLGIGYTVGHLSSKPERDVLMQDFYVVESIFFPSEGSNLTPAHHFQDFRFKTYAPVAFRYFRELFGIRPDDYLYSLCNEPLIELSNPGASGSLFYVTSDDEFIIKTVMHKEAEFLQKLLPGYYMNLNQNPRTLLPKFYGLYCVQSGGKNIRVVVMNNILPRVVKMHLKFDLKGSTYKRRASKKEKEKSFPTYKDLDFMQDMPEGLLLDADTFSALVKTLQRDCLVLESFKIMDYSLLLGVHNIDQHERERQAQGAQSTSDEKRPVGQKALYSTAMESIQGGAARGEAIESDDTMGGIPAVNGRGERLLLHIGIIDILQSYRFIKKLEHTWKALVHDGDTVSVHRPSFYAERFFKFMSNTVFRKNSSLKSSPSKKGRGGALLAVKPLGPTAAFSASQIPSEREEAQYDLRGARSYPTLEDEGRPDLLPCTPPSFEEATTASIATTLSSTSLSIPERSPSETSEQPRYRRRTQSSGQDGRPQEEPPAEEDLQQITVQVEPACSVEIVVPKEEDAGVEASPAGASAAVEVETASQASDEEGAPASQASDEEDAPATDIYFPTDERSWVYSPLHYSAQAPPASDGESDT
DAPK2, sequence (Q9UIK4 whole entry): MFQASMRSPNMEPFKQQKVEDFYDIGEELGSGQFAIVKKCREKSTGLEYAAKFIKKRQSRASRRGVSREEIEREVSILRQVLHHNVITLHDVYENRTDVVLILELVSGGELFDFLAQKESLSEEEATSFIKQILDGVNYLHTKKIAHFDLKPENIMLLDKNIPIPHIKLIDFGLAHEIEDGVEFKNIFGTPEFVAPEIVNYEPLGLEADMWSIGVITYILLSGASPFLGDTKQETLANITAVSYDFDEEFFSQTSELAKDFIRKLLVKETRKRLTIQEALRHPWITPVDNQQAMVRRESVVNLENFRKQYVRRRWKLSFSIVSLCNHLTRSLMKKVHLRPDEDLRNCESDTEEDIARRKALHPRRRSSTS
SRPK2, sequence (P78362 whole entry): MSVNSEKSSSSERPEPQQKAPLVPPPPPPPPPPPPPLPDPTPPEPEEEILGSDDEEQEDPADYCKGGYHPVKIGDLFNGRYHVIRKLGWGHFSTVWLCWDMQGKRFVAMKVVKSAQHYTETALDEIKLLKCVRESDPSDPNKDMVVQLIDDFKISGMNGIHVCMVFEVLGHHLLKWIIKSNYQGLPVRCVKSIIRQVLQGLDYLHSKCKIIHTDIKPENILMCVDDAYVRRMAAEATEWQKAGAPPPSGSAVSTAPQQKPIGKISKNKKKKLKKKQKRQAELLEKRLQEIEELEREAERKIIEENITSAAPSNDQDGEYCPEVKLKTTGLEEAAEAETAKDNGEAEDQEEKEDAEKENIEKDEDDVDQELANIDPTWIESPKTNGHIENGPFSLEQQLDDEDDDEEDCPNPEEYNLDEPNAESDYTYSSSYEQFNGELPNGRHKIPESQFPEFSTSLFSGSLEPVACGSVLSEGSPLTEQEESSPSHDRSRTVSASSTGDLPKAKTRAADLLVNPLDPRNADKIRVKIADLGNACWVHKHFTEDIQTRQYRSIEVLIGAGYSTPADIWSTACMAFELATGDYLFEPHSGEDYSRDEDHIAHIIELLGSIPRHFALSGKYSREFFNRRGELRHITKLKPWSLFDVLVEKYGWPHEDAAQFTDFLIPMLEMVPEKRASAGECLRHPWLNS
T7 sequence (P00519 whole entry F317I): as the sequence (P00519 whole entry F317L) above, with L317I counted along it

C=CC(=O)Nc1cc(-n2c(=O)ccc3cnc4ccc(-n5cccn5)cc4c32)ccc1C [CHMFL-BTK-11]
remaining binding at 1 µM (PDGFRA): 100% | remaining binding at 1 µM (PCTK1): 100% | remaining binding at 1 µM (DAPK2): 100% | remaining binding at 1 µM (DCAMKL3): 88% | remaining binding at 1 µM (MLK3): 100% | remaining binding at 1 µM (KIT(V559D,V654A)): 100% | remaining binding at 1 µM (PIP5K1C): 82% | remaining binding at 1 µM (PIK3CA(E545A)): 76% | remaining binding at 1 µM (PKAC-alpha): 98% | remaining binding at 1 µM [1]: 96% | remaining binding at 1 µM (DCAMKL2): 100% | remaining binding at 1 µM (EGFR): 88% | remaining binding at 1 µM [2]: 100% | remaining binding at 1 µM (NEK2): 100% | remaining binding at 1 µM (STK35): 100% | remaining binding at 1 µM (ADCK4): 100% | remaining binding at 1 µM [3]: 100% | remaining binding at 1 µM (SRPK2): 100% | remaining binding at 1 µM (HASPIN): 59% | remaining binding at 1 µM (FER): 98% | remaining binding at 1 µM (NEK9): 100% | remaining binding at 1 µM (CLK2): 100% | remaining binding at 1 µM (PIM2): 100% | remaining binding at 1 µM (p38-alpha): 76%
